Measurements published in paper PMC12778052 (Science Advances, 2026).

Legend:
[1] = lowest exposure (Cavg) quartile; cited from earlier work
Description: Real-time assessment of tumor heterogeneity remains a critical challenge in optimizing targeted therapies. Despite the importance of sensitive assays for real-time insights into drug-tumor interactions, such tools remain limited ([6], [25]). Model-based approaches that integrate nonclinical and clinical data—such as PK and PD parameters—can facilitate efficacy and safety predictions ([26]). However, these models often fail to fully account for the dynamic complexities of tumor heterogeneity and intrinsic factors that affect drug PK/PD, especially in real time. This is particularly true for mac ...

[2] = biological target: T1, mouse Nectin-4 (Mus musculus, UniProt Q8R007); experiment: SPR affinity for recombinant mouse Nectin-4; type: binding; conditions: mouse Nectin-4
T1 construct: purchased R&D Systems 3116-N4-050
T1 sequence (Q8R007 31-347 limits assumed): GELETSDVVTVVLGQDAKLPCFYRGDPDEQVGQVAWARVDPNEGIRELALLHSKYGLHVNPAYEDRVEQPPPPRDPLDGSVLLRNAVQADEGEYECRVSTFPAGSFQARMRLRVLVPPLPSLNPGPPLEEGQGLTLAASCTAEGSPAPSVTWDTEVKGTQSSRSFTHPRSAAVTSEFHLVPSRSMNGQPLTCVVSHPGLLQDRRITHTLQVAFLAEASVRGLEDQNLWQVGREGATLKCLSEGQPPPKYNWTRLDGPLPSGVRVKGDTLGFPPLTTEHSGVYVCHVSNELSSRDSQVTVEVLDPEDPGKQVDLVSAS
Protocol: The affinity of AJ647 for human and mouse Nectin-4 recombinant proteins was evaluated by SPR. The experiments were conducted using a Biacore T200 instrument with a CM5 chip at 25°C. The ligands used were His-tagged human Nectin-4 (R&D Systems, catalog no. 2659-N4-050, 44 kDa, 0.2 mg/ml stock concentration) and mouse Nectin-4 proteins (R&D Systems, catalog no. 3116-N4-050, 45 kDa, 0.2 mg/ml stock concentration), which were immobilized onto the CM5 chip. AJ647 (3057.5 Da, 10 mM stock concentration) was used as the analyte, which flowed over the ligand-immobilized surface. FC2 and FC4 was used as the experimental flow cell, while FC1 and FC3 served as the reference. An anti-His antibody (1 mg/ml stock concentration) was immobilized on all flow cells using standard amine coupling chemistry. […] Human Nectin-4 was captured onto FC2 at a level of ~600 RU, with a 1:20 dilution and 10 μg/ml diluted concentration in PBS-P. Mouse Nectin-4 was captured onto FC4 at a level of 600 RU, with a 1:20 dilution and 10 μg/ml diluted concentration in PBS-P. The theoretical maximum response (Rmax ) values were calculated on the basis of the captured response values (table S1), assuming a 1:1 interaction mechanism. […] All association and dissociation kinetics were evaluated by 1:1 kinetics model fitting.

[3] = tested on: RT112 cells; experiment: In vitro binding of [^68Ga]AJ647 to RT112 cells; type: cell-based; conditions: 1 × 10^6 cells, ~1 μCi, 30 min, 4°C, means ± SD, n = 4
Protocol: (§1) In vitro binding of [^68Ga]AJ647 to T24, SCaBER, RT112, UC9, UC14, and HT1376 cells was determined by incubating 1 × 10^6 cells with ~1 μCi of [^68Ga]AJ647 for 30 min at 4°C. After incubation, cells were washed three times with ice-cold PBS containing 0.1% Tween 20 and counted on an automated gamma counter. All cell radioactivity uptake studies were performed in quadruplicate for each cell line and repeated three times.

[4] = tested on: T24 cells; experiment: In vitro binding of [^68Ga]AJ647 to T24 cells; type: cell-based; conditions: T24 (low Nectin-4); 1 × 10^6 cells, ~1 μCi, 30 min, 4°C; means ± SD, n = 4
Protocol: as §1

| Compound | response rate [1] [%] | koff [2] [s⁻¹] | [^68Ga]AJ647 uptake [3] [%IA] | [^68Ga]AJ647 uptake [4] [%IA] |
| --- | --- | --- | --- | --- |
| enfortumab vedotin [EV] | 32 | – | – | – |
| CSCC[C@@H]1NC(=O)[C@@H]2CSCCC(=O)N3CN(CN(C3)C(=O)CCSC[C@H](NC(=O)CCOCCOCCOCCOCCOCCOCCOCCOCCOCCOCCOCCOCCNC(=O)CN3CCN(CC(=O)O)CCN(CC(=O)O)CC3)C(=O)N3CCC[C@H]3C(=O)N[C@@H](Cc3cccc4ccccc34)C(=O)N[C@@H](CC(=O)O)C(=O)N2)C(=O)CCSC[C@@H](C(N)=O)NC(=O)[C@H](Cc2c[nH]c3ccccc23)NC(=O)[C@@H]2C[C@@H](O)CN2C(=O)[C@@H]2CCCN2C(=O)[C@H]([C@@H](C)O)NC(=O)[C@H](CO)NC(=O)[C@H](Cc2c[nH]c3ccccc23)NC(=O)[C@@H](CC(=O)O)NC(=O)[C@H](CCCCNC(=N)N)NC1=O [[^68Ga]AJ647, metal not drawn] | – | 0.0101 ± 0.00295 | 1.9 ± 0.18 | 0.2 ± 0.11 |
